Measured values taken from publication PMC9814657, “Generative and reinforcement learning approaches for the automated de novo design of bioactive compounds” (Communications Chemistry, 2022).

Target: T1, epidermal growth factor receptor (EGFR) (Homo sapiens, UniProt P00533)
Test: […] radiometric HotSpot kinase assay, 10-dose IC50, […] ATP (Reaction Biology)
Type: biochemical
Settings: not given

T1 sequence (P00533 25-1210): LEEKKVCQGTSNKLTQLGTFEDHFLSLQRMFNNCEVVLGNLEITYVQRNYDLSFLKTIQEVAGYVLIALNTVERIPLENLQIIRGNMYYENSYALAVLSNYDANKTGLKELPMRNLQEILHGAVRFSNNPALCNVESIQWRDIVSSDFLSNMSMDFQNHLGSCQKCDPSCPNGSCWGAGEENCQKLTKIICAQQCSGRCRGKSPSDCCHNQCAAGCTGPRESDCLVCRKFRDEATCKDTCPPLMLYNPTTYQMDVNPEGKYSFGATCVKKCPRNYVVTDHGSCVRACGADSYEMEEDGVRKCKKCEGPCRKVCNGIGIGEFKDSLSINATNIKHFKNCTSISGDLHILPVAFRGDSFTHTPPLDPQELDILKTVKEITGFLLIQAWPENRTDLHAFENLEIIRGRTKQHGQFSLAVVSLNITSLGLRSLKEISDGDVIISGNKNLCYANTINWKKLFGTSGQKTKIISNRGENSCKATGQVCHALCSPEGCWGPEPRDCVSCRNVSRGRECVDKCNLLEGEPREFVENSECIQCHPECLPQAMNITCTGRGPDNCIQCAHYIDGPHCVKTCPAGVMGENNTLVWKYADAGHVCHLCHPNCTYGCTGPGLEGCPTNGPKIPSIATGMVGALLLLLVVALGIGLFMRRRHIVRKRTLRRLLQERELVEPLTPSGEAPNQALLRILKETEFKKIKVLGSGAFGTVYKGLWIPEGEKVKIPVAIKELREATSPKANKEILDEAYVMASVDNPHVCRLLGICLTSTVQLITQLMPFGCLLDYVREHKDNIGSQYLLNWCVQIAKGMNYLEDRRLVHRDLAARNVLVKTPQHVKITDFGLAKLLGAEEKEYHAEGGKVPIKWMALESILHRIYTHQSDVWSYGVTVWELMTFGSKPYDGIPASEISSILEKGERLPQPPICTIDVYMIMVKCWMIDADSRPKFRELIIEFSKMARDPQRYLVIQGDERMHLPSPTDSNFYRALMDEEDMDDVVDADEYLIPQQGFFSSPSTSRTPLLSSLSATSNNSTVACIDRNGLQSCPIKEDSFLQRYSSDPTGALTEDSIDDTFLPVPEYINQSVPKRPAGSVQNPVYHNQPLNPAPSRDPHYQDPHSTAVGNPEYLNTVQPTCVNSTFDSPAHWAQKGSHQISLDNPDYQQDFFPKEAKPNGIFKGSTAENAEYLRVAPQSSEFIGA

| pIC50 | IC50 | SMILES |
| --- | --- | --- |
| 7.5 pIC50 |  | Fc1ccc(Nc2ncnc3ccc(Br)cc23)cc1 [compound 1, Z1192045732] |
| 7.4 pIC50 |  | Nc1c(Cl)cc(Nc2ncnc3ccc(F)cc23)cc1Cl [compound 2, Z1576525970] |
|  | 1400 nM | Nc1c(Cl)cc(Nc2ncnc3c(F)cccc23)cc1Cl [compound 4, Z1823625743] |

Target: T1, epidermal growth factor receptor (EGFR)
Test: biochemical
Set-up: 33P radiometric HotSpot filter-binding EGFR kinase assay, 10 uM ATP, Reaction Biology
Settings: 10 uM ATP
Procedure: (§1) Compounds that emerged as computational hits were purchased from Enamine (https://www.enaminestore.com/) and resuspended in 100% DMSO at 10 mM concentration. In vitro experiments were performed at Reaction Biology (https://www.reactionbiology.com/) using a radioactive assay based on the transfer of ^33P-labeled phosphate from ATP to the kinase substrate. The HotSpot^SM assay utilizes a miniaturized filter binding, where reaction mixtures are spotted onto filter papers. Then reaction mixture binds the radioisotope-labeled catalytic product. Unreacted phosphate is removed via washing of the filter papers. All reactions were carried out at 10 μM ATP concentrations. Seventeen computational hit molecules were matched with Enamine REAL. All of the predicted active compounds were derivatives of 4-anilinoquinazoline, a chemotype that was well represented in Enamine REAL (Table S1). The predicted active compounds contained a few small substituents on the quinazoline ring (positions 5–8: F, Cl, Br, OCH3) but a wide range of substituents on the 4-anilino group. […] The twenty three 4-anilinoquinazoline analogs were dissolved in DMSO and sent to Reaction Biology (https://www.reactionbiology.com/) for EGFR enzymatic assay screening. Two compounds in the predicted active series were insoluble in DMSO; therefore, biological tests were not performed. The 4-anilinoquinazoline analogs were initially tested in single-dose duplicate mode at a concentration of 1 μM and percent inhibition relative to DMSO control was determined (Table S1).

| inhibition at 1 µM | SMILES |
| --- | --- |
| 96% | Fc1ccc(Nc2ncnc3ccc(Br)cc23)cc1 [ZINC000000099087] |
| 8% | Fc1ccc2ncnc(Nc3ccc(N4CCCC4)cc3)c2c1 [ZINC000041479925] |
| 14% | CN(C)C1CCN(c2ccc(Nc3ncnc4ccc(F)cc34)cc2)CC1 [ZINC000089266948] |
| 12% | Fc1ccc(Nc2ncnc3ccc(F)cc23)cc1 [ZINC000092611293] |
| 10% | OC1CCN(c2ccc(Nc3ncnc4ccc(Br)cc34)cc2)CC1 [ZINC000112964683] |
| 12% | CNC(=O)CCOc1ccc(Nc2ncnc3cc(Cl)ccc23)cc1 [ZINC000301175853] |
| 89% | Nc1c(Cl)cc(Nc2ncnc3ccc(F)cc23)cc1Cl [ZINC000301931984] |
| 10% | CN(C)CCc1ccc(Nc2ncnc3ccc(F)cc23)cc1 [ZINC000301950472] |
| 8% | CN(C)C1CCN(c2ccc(Nc3ncnc4ccc(Br)cc34)cc2)CC1 [ZINC000301979927] |
| 12% | COCCOc1ccc(Nc2ncnc3cc(F)c(OC)cc23)cc1F [ZINC000302555896] |
| 47% | Nc1c(Cl)cc(Nc2ncnc3c(F)cccc23)cc1Cl [ZINC000302791534] |
| 12% | CN(C)C1CCN(c2ccc(Nc3ncnc4c(F)cccc34)cc2)CC1 [ZINC000302845052] |
| 16% | COCCOc1ccc(Nc2ncnc3c(F)cccc23)cc1Cl [ZINC000302873009] |
| 4% | OC1CCCCC1Oc1ccc(Nc2ncnc3ccc(F)cc23)cc1 (centres unmarked) [ZINC000440544230] |
| 83% | Cc1ccc(Nc2ncnc3cccc(F)c23)cc1F [ZINC000480349471] |
| 8% | COCCOc1ccc(Nc2ncnc3cccc(F)c23)cc1F [ZINC000480418233] |
| 0% | OCCCOc1ccc(Nc2ncnc3cc(Cl)ccc23)cc1 [ZINC000572311742] |
| 8% | CN(C)CCc1ccc(Nc2ncnc3ccc(Cl)cc23)cc1 [ZINC000594704454] |
| 14% | CN(C)CC1CCN(c2ccc(Nc3ncnc4ccc(Br)cc34)cc2)CC1 [ZINC000737413605] |

Target: T1, epidermal growth factor receptor (EGFR)
Test: biochemical
Set-up: 33P radiometric HotSpot filter-binding EGFR kinase assay, 10 uM ATP, Reaction Biology
Settings: 10 uM ATP; read-out: EGFR pIC50 (converted)
Procedure: as §1, with “REAL.” for “REAL. All of the predicted active compounds were derivatives of 4-anilinoquinazoline, a chemotype that was well represented in Enamine REAL (Table S1). The predicted active compounds contained a few small substituents on the quinazoline ring (positions 5–8: F, Cl, Br, OCH3) but a wide range of substituents on the 4-anilino group.”, “Two compounds in the predicted active series were insoluble in DMSO; therefore, biological tests were not performed.” left out

| IC50 | SMILES |
| --- | --- |
| 31.6 nM | Fc1ccc(Nc2ncnc3ccc(Br)cc23)cc1 [ZINC000000099087] |
| 39.8 nM | Nc1c(Cl)cc(Nc2ncnc3ccc(F)cc23)cc1Cl [ZINC000301931984] |
| 1260 nM | Nc1c(Cl)cc(Nc2ncnc3c(F)cccc23)cc1Cl [ZINC000302791534] |
| 200 nM | Cc1ccc(Nc2ncnc3cccc(F)c23)cc1F [ZINC000480349471] |
